Reference: ChEMBL document CHEMBL5576067, “Synthesis and biological evaluation of novel 1,2,3,4-tetrahydro-β-carboline derivatives as potential antibacterial agents” (Bioorg Med Chem Lett, 2024)
Converted amounts (≈) assume the structure as drawn.

Tests used:
Type in all cases: functional
Staphylococcus aureus [1] = assay: Antibacterial activity against methicillin resistant Staphylococcus aureus ATCC33591 assessed as inhibition of bacterial growth incubated for 24 hrs by broth microdilution method
Staphylococcus aureus [2] = assay: Antibacterial activity against Staphylococcus aureus ATCC25923 assessed as inhibition of bacterial growth incubated for 24 hrs by broth microdilution method
Enterococcus faecium = assay: Antibacterial activity against vancomycin-resistant Enterococcus faecium ATCC 700221 assessed as inhibition of bacterial growth incubated for 24 hrs by broth microdilution method
[3] = Antibacterial activity against Pseudomonas syringae pv. actinidiae assessed as inhibition of bacterial growth incubated for 24 hrs by broth microdilution method
Escherichia coli = assay: Antibacterial activity against Escherichia coli ATCC25922 assessed as inhibition of bacterial growth incubated for 24 hrs by broth microdilution method
Ralstonia solanacearum = assay: Antibacterial activity against Ralstonia solanacearum assessed as inhibition of bacterial growth incubated for 24 hrs by broth microdilution method

Compound: CN1CCc2c([nH]c3ccccc23)C1c1ccc(NC(=O)c2cccc([N+](=O)[O-])c2)cc1 (stereo not drawn)
- MIC (Staphylococcus aureus [1]): 64 µg/mL (≈ 150 µM)
- MIC (Staphylococcus aureus [2]): 64 µg/mL (≈ 150 µM)
- MIC (Enterococcus faecium): > 128 µg/mL
- MIC [3]: > 128 µg/mL
- MIC (Escherichia coli): 64 µg/mL (≈ 150 µM)
- MIC (Ralstonia solanacearum): 64 µg/mL (≈ 150 µM)

Compound: CN1CCc2c([nH]c3ccccc23)C1c1ccc(NC(=O)c2ccc([N+](=O)[O-])cc2)cc1 (stereo not drawn)
- MIC (Staphylococcus aureus [1]): 16 µg/mL (≈ 37.5 µM)
- MIC (Staphylococcus aureus [2]): 32 µg/mL (≈ 75 µM)
- MIC (Enterococcus faecium): > 128 µg/mL
- MIC [3]: 32 µg/mL (≈ 75 µM)
- MIC (Escherichia coli): 32 µg/mL (≈ 75 µM)
- MIC (Ralstonia solanacearum): 32 µg/mL (≈ 75 µM)

Compound: O=C(Nc1ccc(C2NCCc3c2[nH]c2ccccc32)cc1)c1cccc(F)c1 (stereo not drawn)
- MIC (Staphylococcus aureus [1]): 4 µg/mL (≈ 10.4 µM)
- MIC (Staphylococcus aureus [2]): 16 µg/mL (≈ 41.5 µM)
- MIC (Enterococcus faecium): > 128 µg/mL
- MIC [3]: 32 µg/mL (≈ 83 µM)
- MIC (Escherichia coli): 16 µg/mL (≈ 41.5 µM)
- MIC (Ralstonia solanacearum): 8 µg/mL (≈ 20.8 µM)

Compound: O=C(Nc1ccc(C2NCCc3c2[nH]c2ccccc32)cc1)c1cccc(Cl)c1 (stereo not drawn)
- MIC (Staphylococcus aureus [1]): 8 µg/mL (≈ 19.9 µM)
- MIC (Staphylococcus aureus [2]): 16 µg/mL (≈ 39.8 µM)
- MIC (Enterococcus faecium): > 128 µg/mL
- MIC [3]: 64 µg/mL (≈ 159 µM)
- MIC (Escherichia coli): 8 µg/mL (≈ 19.9 µM)
- MIC (Ralstonia solanacearum): 8 µg/mL (≈ 19.9 µM)

Compound: CN1CCc2c([nH]c3ccccc23)C1c1ccc(NC(=O)c2ccc(F)c(C(F)(F)F)c2)cc1 (stereo not drawn)
- MIC (Staphylococcus aureus [1]): 8 µg/mL (≈ 17.1 µM)
- MIC (Staphylococcus aureus [2]): 16 µg/mL (≈ 34.2 µM)
- MIC (Enterococcus faecium): > 128 µg/mL
- MIC [3]: 64 µg/mL (≈ 137 µM)
- MIC (Escherichia coli): 16 µg/mL (≈ 34.2 µM)
- MIC (Ralstonia solanacearum): 16 µg/mL (≈ 34.2 µM)

Compound: CN1CCc2c([nH]c3ccccc23)C1c1ccc(NC(=O)c2ccc(C(F)(F)F)cc2)cc1 (stereo not drawn)
- MIC (Staphylococcus aureus [1]): 8 µg/mL (≈ 17.8 µM)
- MIC (Staphylococcus aureus [2]): 8 µg/mL (≈ 17.8 µM)
- MIC (Enterococcus faecium): 128 µg/mL (≈ 285 µM)
- MIC [3]: 32 µg/mL (≈ 71.2 µM)
- MIC (Escherichia coli): 16 µg/mL (≈ 35.6 µM)
- MIC (Ralstonia solanacearum): 16 µg/mL (≈ 35.6 µM)

Compound: Cc1cccc(C(=O)Nc2ccc(C3NCCc4c3[nH]c3ccccc43)cc2)c1 (stereo not drawn)
- MIC (Staphylococcus aureus [1]): 64 µg/mL (≈ 168 µM)
- MIC (Staphylococcus aureus [2]): 32 µg/mL (≈ 83.9 µM)
- MIC (Enterococcus faecium): > 128 µg/mL
- MIC [3]: 32 µg/mL (≈ 83.9 µM)
- MIC (Escherichia coli): 32 µg/mL (≈ 83.9 µM)
- MIC (Ralstonia solanacearum): 32 µg/mL (≈ 83.9 µM)

Compound: Cc1ccccc1C(=O)Nc1ccc(C2c3[nH]c4ccccc4c3CCN2C)cc1 (stereo not drawn)
- MIC (Staphylococcus aureus [1]): 32 µg/mL (≈ 80.9 µM)
- MIC (Staphylococcus aureus [2]): 64 µg/mL (≈ 162 µM)
- MIC (Enterococcus faecium): > 128 µg/mL
- MIC [3]: 64 µg/mL (≈ 162 µM)
- MIC (Escherichia coli): 64 µg/mL (≈ 162 µM)
- MIC (Ralstonia solanacearum): 128 µg/mL (≈ 324 µM)

Compound: O=C(Nc1ccc(C2NCCc3c2[nH]c2ccccc32)cc1)c1ccc(Br)cc1 (stereo not drawn)
- MIC (Staphylococcus aureus [1]): 32 µg/mL (≈ 71.7 µM)
- MIC (Staphylococcus aureus [2]): 32 µg/mL (≈ 71.7 µM)
- MIC (Enterococcus faecium): > 128 µg/mL
- MIC [3]: 16 µg/mL (≈ 35.8 µM)
- MIC (Escherichia coli): 8 µg/mL (≈ 17.9 µM)
- MIC (Ralstonia solanacearum): 32 µg/mL (≈ 71.7 µM)

Compound: CN1CCc2c([nH]c3ccccc23)C1c1ccc(NC(=O)c2ccc(Br)cc2)cc1 (stereo not drawn)
- MIC (Staphylococcus aureus [1]): 32 µg/mL (≈ 69.5 µM)
- MIC (Staphylococcus aureus [2]): 32 µg/mL (≈ 69.5 µM)
- MIC (Enterococcus faecium): > 128 µg/mL
- MIC [3]: 64 µg/mL (≈ 139 µM)
- MIC (Escherichia coli): 32 µg/mL (≈ 69.5 µM)
- MIC (Ralstonia solanacearum): 32 µg/mL (≈ 69.5 µM)

Compound: O=C(Nc1ccc(C2NCCc3c2[nH]c2ccccc32)cc1)c1ccc([N+](=O)[O-])cc1 (stereo not drawn)
- MIC (Staphylococcus aureus [1]): 4 µg/mL (≈ 9.7 µM)
- MIC (Staphylococcus aureus [2]): 8 µg/mL (≈ 19.4 µM)
- MIC (Enterococcus faecium): > 128 µg/mL
- MIC [3]: 32 µg/mL (≈ 77.6 µM)
- MIC (Escherichia coli): 8 µg/mL (≈ 19.4 µM)
- MIC (Ralstonia solanacearum): 8 µg/mL (≈ 19.4 µM)

Compound: CN1CCc2c([nH]c3ccccc23)C1c1ccc(NC(=O)c2cccc(C(F)(F)F)c2)cc1 (stereo not drawn)
- MIC (Staphylococcus aureus [1]): 32 µg/mL (≈ 71.2 µM)
- MIC (Staphylococcus aureus [2]): 32 µg/mL (≈ 71.2 µM)
- MIC (Enterococcus faecium): > 128 µg/mL
- MIC [3]: 32 µg/mL (≈ 71.2 µM)
- MIC (Escherichia coli): 32 µg/mL (≈ 71.2 µM)
- MIC (Ralstonia solanacearum): 16 µg/mL (≈ 35.6 µM)

Compound: Cc1cccc(C(=O)Nc2ccc(C3c4[nH]c5ccccc5c4CCN3C)cc2)c1 (stereo not drawn)
- MIC (Staphylococcus aureus [1]): 64 µg/mL (≈ 162 µM)
- MIC (Staphylococcus aureus [2]): 32 µg/mL (≈ 80.9 µM)
- MIC (Enterococcus faecium): > 128 µg/mL
- MIC [3]: 32 µg/mL (≈ 80.9 µM)
- MIC (Escherichia coli): 64 µg/mL (≈ 162 µM)
- MIC (Ralstonia solanacearum): 32 µg/mL (≈ 80.9 µM)

Compound: Cc1ccccc1C(=O)Nc1ccc(C2NCCc3c2[nH]c2ccccc32)cc1 (stereo not drawn)
- MIC (Staphylococcus aureus [1]): 32 µg/mL (≈ 83.9 µM)
- MIC (Staphylococcus aureus [2]): 32 µg/mL (≈ 83.9 µM)
- MIC (Enterococcus faecium): > 128 µg/mL
- MIC [3]: 128 µg/mL (≈ 336 µM)
- MIC (Escherichia coli): 64 µg/mL (≈ 168 µM)
- MIC (Ralstonia solanacearum): 128 µg/mL (≈ 336 µM)

Compound: CN1CCc2c([nH]c3ccccc23)C1c1ccc(NC(=O)c2cc(C(F)(F)F)cc(C(F)(F)F)c2)cc1 (stereo not drawn)
- MIC (Staphylococcus aureus [1]): 32 µg/mL (≈ 61.8 µM)
- MIC (Staphylococcus aureus [2]): 16 µg/mL (≈ 30.9 µM)
- MIC (Enterococcus faecium): > 128 µg/mL
- MIC [3]: > 128 µg/mL
- MIC (Escherichia coli): 128 µg/mL (≈ 247 µM)
- MIC (Ralstonia solanacearum): 128 µg/mL (≈ 247 µM)

Compound: CN1CCc2c([nH]c3ccccc23)C1c1ccc(NC(=O)c2ccc(F)cc2)cc1 (stereo not drawn)
- MIC (Staphylococcus aureus [1]): 8 µg/mL (≈ 20 µM)
- MIC (Staphylococcus aureus [2]): 4 µg/mL (≈ 10 µM)
- MIC (Enterococcus faecium): > 128 µg/mL
- MIC [3]: 128 µg/mL (≈ 320 µM)
- MIC (Escherichia coli): 16 µg/mL (≈ 40.1 µM)
- MIC (Ralstonia solanacearum): 16 µg/mL (≈ 40.1 µM)

Compound: O=C(Nc1ccc(C2NCCc3c2[nH]c2ccccc32)cc1)c1ccccc1 (stereo not drawn)
- MIC (Staphylococcus aureus [1]): 128 µg/mL (≈ 348 µM)
- MIC (Staphylococcus aureus [2]): 128 µg/mL (≈ 348 µM)
- MIC (Enterococcus faecium): > 128 µg/mL
- MIC [3]: 32 µg/mL (≈ 87.1 µM)
- MIC (Escherichia coli): 64 µg/mL (≈ 174 µM)
- MIC (Ralstonia solanacearum): 32 µg/mL (≈ 87.1 µM)

Compound: CN1CCc2c([nH]c3ccccc23)C1c1ccc(NC(=O)c2ccccc2)cc1 (stereo not drawn)
- MIC (Staphylococcus aureus [1]): 128 µg/mL (≈ 336 µM)
- MIC (Staphylococcus aureus [2]): 128 µg/mL (≈ 336 µM)
- MIC (Enterococcus faecium): > 128 µg/mL
- MIC [3]: 64 µg/mL (≈ 168 µM)
- MIC (Escherichia coli): 128 µg/mL (≈ 336 µM)
- MIC (Ralstonia solanacearum): 128 µg/mL (≈ 336 µM)
